The values below come from patent US5236936A, “Pyridine compounds which are useful as angiotensin II receptor antagonists” (Imperial Chemical Industries PLC, priority 1991, dated 1993).

The ED50 is the midpoint of the dose-response relation. The low end stands for an effect at a small dose, the high end for a need for a large dose.

pIC50: −log10 of the molar value.

The test system of assay [1] is angiotensin II-induced pressor responses. Kind of assay: Test C: antagonism of angiotensin II-induced pressor responses in terminally-anaesthetised or conscious rats. It is filed as in vivo. The following applies: iv, rat, i.v. administration. Here is the method:
Test C: This in vivo test involves using terminally-anaesthetised or conscious rats in which an arterial catheter has been implanted under anaesthesia for the measurement of changes in blood pressure. The AII antagonistic effects of the test compound following oral or parenteral administration, are assessed against angiotensin II-induced pressor responses. To ensure that the effect is specific, the effect of the test compound on vasopressin-induced pressor responses may also be determined in the same preparation.

In assay [2] the target is T1, AII receptors (guinea pig adrenal gland cell surface membrane fraction) (Cavia porcellus, UniProt Q9WV26).
T1 construct: from tissue; host or cells: guinea pig adrenal gland, cell surface membrane fraction
T1 sequence (Q9WV26 1-359): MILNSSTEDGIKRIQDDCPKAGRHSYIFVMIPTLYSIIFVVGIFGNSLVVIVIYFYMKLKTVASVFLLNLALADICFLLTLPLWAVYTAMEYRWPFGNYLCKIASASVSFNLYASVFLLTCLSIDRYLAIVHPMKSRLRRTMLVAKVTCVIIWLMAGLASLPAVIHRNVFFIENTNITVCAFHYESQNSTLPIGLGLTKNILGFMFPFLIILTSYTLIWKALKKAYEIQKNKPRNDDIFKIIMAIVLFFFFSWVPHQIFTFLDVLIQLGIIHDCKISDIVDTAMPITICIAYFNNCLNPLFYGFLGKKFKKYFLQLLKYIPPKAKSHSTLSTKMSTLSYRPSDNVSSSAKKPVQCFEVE
Briefly: Test A: displacement of radiolabelled AII binding to guinea pig adrenal gland cell surface membranes. The note with it: read-out: IC50 (concentration for 50% displacement of radiolabelled AII binding). Here is the method:
Test A: This in vitro procedure involves the incubation of the test compound initially at a concentration of 100 micromolar (or less) in a buffered mixture containing fixed concentrations of radiolabelled AII and a cell surface membrane fraction prepared from a suitable angiotensin target tissue. In this test, the source of cell surface membranes is the guinea pig adrenal gland which is well known to respond to AII. Interaction of the radiolabelled AII with its receptors (assessed as radiolabel bound to the particulate membrane fraction following removal of unbound radiolabel by a rapid filtration procedure such as is standard in such studies) is antagonized by compounds which also bind to the membrane receptor sites and the degree of antagonism (observed in the test as displacement of membrane-bound radioactivity) is determined readily by comparing the receptor-bound radioactivity in the presence of the test compound at the specified test concentration with a control value determined in the absence of the test compound. Using this procedure compounds showing at least 50% displacement of radiolabelled AII binding at a concentration of 10^-4 M are retested at lower concentrations to determine their potency. […]

`CCc1cc(OCc2ccc(-c3ccccc3-c3nnn[nH]3)cc2)c(-c2ccncc2)c(C)n1.Cl.Cl` [Example 3, 6-ethyl-2-methyl-3-(4-pyridyl)-4-[(2'-(1H-tetrazol-5-yl)biphenyl-4-yl)methoxy]pyridine dihydrochloride] showed a 50% effective dose (ED50) in assay [1] of 0.18 mg/kg. Moreover, the pIC50 in assay [2] is 8.26.
